# From paper PMC8145110, “Design, Synthesis, and Antibacterial Screening of Some Novel Heteroaryl-Based Ciprofloxacin Derivatives as DNA Gyrase and Topoisomerase IV Inhibitors” (Pharmaceuticals, 2021)
row,Compound,melting point
1,"O=C(O)c1cn(C2CC2)c2cc(N3CCN(Cn4nc(-c5ccccc5)oc4=S)CC3)c(F)cc2c1=O [Compound 1, 1-Cyclopropyl-6-fluoro-4-oxo-7-[4-(5-phenyl-2-thioxo[1,3,4]oxadiazol-3-yl-methyl)-piperazin-1-yl]-1,4-dihydro-quinoline-3-carboxylic acid]",228 °C
2,"O=C(O)c1cn(C2CC2)c2cc(N3CCN(Cn4nc(-c5ccccc5)n(-c5ccccc5)c4=S)CC3)c(F)cc2c1=O [Compound 7, 1-Cyclopropyl-7-[4-(3,4-diphenyl-5-thioxo-4,5-dihydro-[1,2,4]triazol-1-ylmethyl)-piperazin-1-yl]-6-fluoro-4-oxo-1,4-dihydro-quinoline-3-carboxylic acid]",288 °C
3,"O=C(O)c1cn(C2CC2)c2cc(N3CCN(Cn4nc(-c5ccccc5Cl)n(-c5ccccc5)c4=S)CC3)c(F)cc2c1=O [Compound 8, 7-{4-[3-(2-Chloro-phenyl)-4-phenyl-5-thioxo-4,5-dihydro-[1,2,4]triazol-1-ylmethyl]-piperazin-1-yl}-1-cyclopropyl-6-fluoro-4-oxo-1,4-dihydro-quinoline-3-carboxylic acid]",214 °C
4,"O=C(O)c1cn(C2CC2)c2cc(N3CCN(Cn4nc(-c5ccc6ccccc6c5)n(-c5ccccc5)c4=S)CC3)c(F)cc2c1=O [Compound 9, 1-Cyclopropyl-6-fluoro-7-[4-(3-naphthalen-2-yl-4-phenyl-5-thioxo-4,5-dihydro-[1,2,4]triazol-1-ylmethyl)-piperazin-1-yl]-4-oxo-1,4-dihydro-quinoline-3-carboxylic acid]",262 °C
5,"O=C(O)c1cn(C2CC2)c2cc(N3CCN(Cn4nc(-c5ccccn5)n(-c5ccccc5)c4=S)CC3)c(F)cc2c1=O [Compound 10, 1-Cyclopropyl-6-fluoro-4-oxo-7-[4-(4-phenyl-3-pyridin-2-yl-5-thioxo-4,5-dihydro-[1,2,4]triazol-1-ylmethyl)-piperazin-1-yl]-1,4-dihydro-quinoline-3-carboxylic acid]",270 °C
6,"O=C(O)c1cn(C2CC2)c2cc(N3CCN(Cn4nc(-c5cccnc5)n(-c5ccccc5)c4=S)CC3)c(F)cc2c1=O [Compound 11, 1-Cyclopropyl-6-fluoro-4-oxo-7-[4-(4-phenyl-3-pyridin-3-yl-5-thioxo-4,5-dihydro-[1,2,4]triazol-1-ylmethyl)-piperazin-1-yl]-1,4-dihydro-quinoline-3-carboxylic acid]",280 °C
7,"O=C(O)c1cn(C2CC2)c2cc(N3CCN(Cn4nc(-c5ccncc5)n(-c5ccccc5)c4=S)CC3)c(F)cc2c1=O [Compound 12, 1-Cyclopropyl-6-fluoro-4-oxo-7-[4-(4-phenyl-3-pyridin-4-yl-5-thioxo-4,5-dihydro-[1,2,4]triazol-1-ylmethyl)-piperazin-1-yl]-1,4-dihydro-quinoline-3-carboxylic acid]",227 °C
8,"O=C(O)c1cn(C2CC2)c2cc(N3CCN(CN4C(=O)C(c5ccccc5)(c5ccccc5)NC4=S)CC3)c(F)cc2c1=O [Compound 13, 1-Cyclopropyl-6-fluoro-4-oxo-7-[4-(5-oxo-4,4-diphenyl-2-thioxo-imidazolidin-1-ylmethyl)-piperazin-1-yl]-1,4-dihydro-quinoline-3-carboxylic acid]",217 °C
9,"NN1C(=S)N(CN2CCN(c3cc4c(cc3F)c(=O)c(C(=O)O)cn4C3CC3)CC2)C(=O)C1(c1ccccc1)c1ccccc1 [Compound 14, 7-[4-(3-Amino-5-oxo-4,4-diphenyl-2-thioxo-imidazolidin-1-ylmethyl)-piperazin-1-yl]-1-cyclopropyl-6-fluoro-4-oxo-1,4-dihydro-quinoline-3-carboxylic acid]",234 °C
10,"N#CN=C1NC(c2ccccc2)(c2ccccc2)C(=O)N1CN1CCN(c2cc3c(cc2F)c(=O)c(C(=O)O)cn3C2CC2)CC1 [Compound 15, 7-[4-(2-Cyanoimino-5-oxo-4,4-diphenyl-imidazolidin-1-ylmethyl)-piperazin-1-yl]-1-cyclopropyl-6-fluoro-4-oxo-1,4-dihydro-quinoline-3-carboxylic acid]",230 °C
11,"O=C(O)c1cn(C2CC2)c2cc(N3CCN(CN4C(=O)SC(=Cc5ccc(Cl)cc5)C4=O)CC3)c(F)cc2c1=O [Compound 17, 7-{4-[5-(4-Chloro-benzylidene)-2,4-dioxo-thiazolidin-3-ylmethyl]-piperazin-1-yl}-1-cyclopropyl-6-fluoro-4-oxo-1,4-dihydro-quinoline-3-carboxylic acid]",244 °C
12,"COc1ccc(C=C2SC(=O)N(CN3CCN(c4cc5c(cc4F)c(=O)c(C(=O)O)cn5C4CC4)CC3)C2=O)cc1 [Compound 18, 1-Cyclopropyl-6-fluoro-7-{4-[5-(4-methoxy-benzylidene)-2,4-dioxo-thiazolidin-3-ylmethyl]-piperazin-1-yl}-4-oxo-1,4-dihydro-quinoline-3-carboxylic acid]",251 °C
13,"O=C(O)c1cn(C2CC2)c2cc(N3CCN(CN4C(=O)SC(=Cc5ccccc5O)C4=O)CC3)c(F)cc2c1=O [Compound 19, 1-Cyclopropyl-6-fluoro-7-{4-[5-(2-hydroxy-benzylidene)-2,4-dioxo-thiazolidin-3-ylmethyl]-piperazin-1-yl}-4-oxo-1,4-dihydro-quinoline-3-carboxylic acid]",244 °C
14,"O=C(O)c1cn(C2CC2)c2cc(N3CCN(CN4C(=O)c5ccccc5C4=O)CC3)c(F)cc2c1=O [Compound 20, 1-Cyclopropyl-7-[4-(1,3-dioxo-1,3-dihydro-isoindol-2-ylmethyl)-piperazin-1-yl]-6-fluoro-4-oxo-1,4-dihydro-quinoline-3-carboxylic acid]",241 °C
15,"O=C(O)c1cn(C2CC2)c2cc(N3CCN(CN4C(=O)CCC4=O)CC3)c(F)cc2c1=O [Compound 21, 1-Cyclopropyl-7-[4-(2,5-dioxo-pyrrolidin-1-ylmethyl)-piperazin-1-yl]-6-fluoro-4-oxo-1,4-dihydro-quinoline-3-carboxylic acid]",214 °C
